These results are taken from ChEMBL document CHEMBL3751784, “Synthesis of novel 1-substituted triazole linked 1,2-benzothiazine 1,1-dioxido propenone derivatives as potent anti-inflammatory agents and inhibitors of monocyte-to-macrophage differentiation” (2015).

Structures are written as SMILES. Calls of active or inactive are those of the source. No cut-off for these calls is given here.

Broadly, the inhibition is the relative decrease from the control value, in per cent.

Assay [1] deals with THP-1. The assay can be described thus: Inhibition of PMA-induced MMP1 transcript level in human THP1 cells at 15 uM preincubated for 2 hrs followed by PMA addition measured after 24 hrs by RT-PCR analysis. It counts as functional, cell-based.
The nature of assay [2]: (§1) Antiinflammatory activity in human THP1 cells assessed as inhibition of PMA-induced IL-1beta secretion at 10 uM preincubated for 2 hrs followed by PMA addition measured after 48 hrs by ELISA. In kind it is functional. Particulars: THP-1.
For assay [3], the system named is THP-1. Kind of assay: Inhibition of PMA-induced monocyte to macrophage differentiation in human THP1 cells assessed as reduction in lysosomal activity at 15 uM preincubated for 2 hrs followed by PMA addition measured after 48 hrs by lysotracker dye-based fluorescence microscopic analysis. It counts as functional, cell-based.
Assay [4] concerns THP-1. Kind of assay: Inhibition of PMA-induced monocyte to macrophage differentiation in human THP1 cells assessed as reduction in MMP9 enzyme activity at 15 uM preincubated for 2 hrs followed by PMA addition measured after 48 hrs by gelatin zymographic analysis. It counts as functional, cell-based.
For assay [5], the system named is THP-1. The assay can be described thus: Antiinflammatory activity in human THP1 cells assessed as inhibition of PMA-induced COX2 mRNA level preincubated for 2 hrs followed by PMA addition measured after 48 hrs by RT-PCR analysis. In kind it is functional, cell-based.
Assay [6] concerns THP-1. The assay can be described thus: Inhibition of PMA-induced MMP9 transcript level in human THP1 cells at 15 uM preincubated for 2 hrs followed by PMA addition measured after 24 hrs by RT-PCR analysis. In kind it is functional, cell-based.
Assay [7] has as its system THP-1. Kind of assay: Inhibition of PMA-induced monocyte to macrophage differentiation in human THP1 cells assessed as reduction in cell size at 15 uM preincubated for 2 hrs followed by PMA addition measured after 48 hrs by mitotracker dye-based confocal microscopic analysis. In kind it is functional.
The test system of assay [8] is THP-1. Kind of assay: Antiinflammatory activity in human THP1 cells assessed as inhibition of PMA-induced MCP-1 secretion preincubated for 2 hrs followed by PMA addition measured after 48 hrs by ELISA. It counts as functional, cell-based. (In general: An ELISA detects its analyte on a solid surface through an enzyme-linked reagent.)
The nature of assay [9]: (§2) Antiinflammatory activity in human THP1 cells assessed as inhibition of PMA-induced MCP-1 secretion at 10 uM preincubated for 2 hrs followed by PMA addition measured after 48 hrs by ELISA. It counts as functional. Particulars: THP-1.
Assay [10] has as its system THP-1. Kind of assay: Antiinflammatory activity in human THP1 cells assessed as inhibition of PMA-induced TNFalpha secretion preincubated for 2 hrs followed by PMA addition measured after 48 hrs by ELISA. In kind it is functional, cell-based.
Assay [11] in a line: Cytotoxicity against human THP1 cells assessed as cell viability at 20 uM after 48 hrs by tryphan blue dye exclusion assay relative to control. In kind it is functional. The following applies: THP-1, 48 h, read-out: Activity.
In assay [12] the test system is THP-1. The assay can be described thus: Inhibition of PMA-induced monocyte to macrophage differentiation in human THP1 cells assessed as reduction in LOX-1 transcript level at 15 uM preincubated for 2 hrs followed by PMA addition measured after 24 hrs by RT-PCR analysis. In kind it is functional, cell-based.
Assay [13] deals with THP-1. Kind of assay: Inhibition of PMA-induced monocyte to macrophage differentiation in human THP1 cells assessed as reduction in CD-36 transcript level at 15 uM preincubated for 2 hrs followed by PMA addition measured after 24 hrs by RT-PCR analysis. In kind it is functional, cell-based.
For assay [14], the system named is THP-1. The assay can be described thus: Inhibition of PMA-induced monocyte to macrophage differentiation in human THP1 cells assessed as reduction in MMP2 enzyme activity at 15 uM preincubated for 2 hrs followed by PMA addition measured after 48 hrs by gelatin zymographic analysis. In kind it is functional, cell-based.
Assay [15] has as its system THP-1. The assay can be described thus: Antiinflammatory activity in human THP1 cells assessed as inhibition of PMA-induced IL-1beta secretion preincubated for 2 hrs followed by PMA addition measured after 48 hrs by ELISA. It counts as functional, cell-based.
The nature of assay [16]: Antiinflammatory activity in human THP1 cells assessed as inhibition of PMA-induced TNFalpha secretion at 10 uM preincubated for 2 hrs followed by PMA addition measured after 48 hrs by ELISA. It counts as functional. Particulars: THP-1.
Assay [17] concerns THP-1. Kind of assay: Inhibition of PMA-induced monocyte to macrophage differentiation in human THP1 cells assessed as reduction in cell adherence at 15 uM preincubated for 2 hrs followed by PMA addition measured after 48 hrs by phase contrast microscopic analysis. It counts as functional, cell-based.
Assay [18] deals with THP-1. The assay can be described thus: Inhibition of PMA-induced monocyte/macrophage invasion in human THP1 cells at 15 uM preincubated for 2 hrs followed by PMA addition measured after 48 hrs by collagen-coated Boyden chamber invasion assay. In kind it is functional, cell-based.
The subject of assay [19] is THP-1. The description is as §1. It counts as functional.
Assay [20] relates to THP-1. The description is as §2. In kind it is functional.

On to `CN1C(C(=O)/C=C/c2cn(CC(=O)Nc3cccc(Cl)c3)nn2)=C(O)c2ccccc2S1(=O)=O`, for which the inhibition result in assay [1], in [3], in [4], in assay [5], in assay [6] and in assay [7] was “Active” in each case. Besides, the inhibition result in assay [12], in assay [13], in assay [17] and in assay [18] was “Active” in each case. Moreover, the figures for the inhibition at 10 µM in assay [2], in [9] and in [16] were 80.4%, 84% and 91.1%, respectively. In addition, the inhibition entry in assay [8], in assay [10] and in [15] was “Dose-dependent effect” each time. Further, the viability at 20 µM in assay [11] was 98.2%. The inhibition result in assay [14] was “inactive”.

In the case of `CN1C(C(=O)/C=C/c2cn(CC(=O)Nc3cccc(C(F)(F)F)c3)nn2)=C(O)c2ccccc2S1(=O)=O`, the inhibition result in [1], in assay [3], in assay [4], in assay [5], in [6] and in assay [7] was “Active” throughout. Further, the inhibition result in assay [12], in assay [13], in assay [17] and in [18] was “Active” throughout. The inhibition at 10 µM in assay [2] was 83.6%; in [9] it was 85.1%; in assay [16] it was 87.6%. For the same molecule, the inhibition entry in [8], in assay [10] and in [15] was “Dose-dependent effect” throughout. The viability at 20 µM in assay [11] was found to be 96.2%. Besides, the inhibition entry in assay [14] is “inactive”.

Regarding `Cc1ccc(NC(=O)Cn2cc(/C=C/C(=O)C3=C(O)c4ccccc4S(=O)(=O)N3C)nn2)cc1`, the inhibition result in [1], in assay [3], in [4], in [5], in assay [6] and in assay [7] was “Active” throughout. Also, the inhibition result in assay [12], in assay [13], in assay [17] and in [18] was “Active” each time. Also, the inhibition at 10 µM was 74.9% in assay [2], 87.2% in [9] and 84.7% in assay [16]. Besides, the inhibition entry in assay [8], in [10] and in assay [15] was “Dose-dependent effect” throughout. Besides, the viability at 20 µM in assay [11] stood at 97%. For the same molecule, the inhibition entry in assay [14] is “inactive”.

In the case of `CN1C(C(=O)/C=C/c2cn(-c3cccc(F)c3)nn2)=C(O)c2ccccc2S1(=O)=O`, the inhibition result in assay [19] and in assay [20] was “inactive” in each case. In assay [11], the viability at 20 µM worked out at 93%. For the same molecule, the inhibition at 10 µM in [16] turned out to be 48.3%.
